The source made the active and inactive calls.
Assays:
[1] = biological target: Voltage-gated inwardly rectifying potassium channel KCNH2 (Homo sapiens, UniProt Q12809); assay: hERG protection from proarrhythmic block, potency, dose response, cell-based, thallium flux (AID 2121); type: ADME
[2] = cytotoxicity in HEK-293T cells, dose response, cytotoxicity control for BCR NF-kB inhibitor project, luminescence, B-cell screen hits (AID 489021); type: functional, cell-based;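 note: HEK-293T cells carrying an NF-kB luciferase reporter; cells exposed to compound for about 14 hours before viability readout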
fMet-Leu-Phe receptor = biological target: T1, fMet-Leu-Phe receptor (Homo sapiens, UniProt P21462); assay: FPR ligands, dose response (AID 519); type: functional
T1 sequence (P21462 whole entry): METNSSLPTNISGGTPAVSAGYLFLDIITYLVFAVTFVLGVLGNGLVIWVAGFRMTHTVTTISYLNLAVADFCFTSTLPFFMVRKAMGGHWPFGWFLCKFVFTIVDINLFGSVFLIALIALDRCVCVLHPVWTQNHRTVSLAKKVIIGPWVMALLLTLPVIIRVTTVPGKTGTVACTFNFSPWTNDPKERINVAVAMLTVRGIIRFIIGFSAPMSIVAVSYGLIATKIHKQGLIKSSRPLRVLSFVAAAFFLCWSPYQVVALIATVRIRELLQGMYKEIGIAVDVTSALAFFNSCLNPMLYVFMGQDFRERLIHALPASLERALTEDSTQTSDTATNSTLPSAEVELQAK

[3] = Luminescence-based cell-based high throughput dose response assay to identify activators of the DAF-12 from the parasite S. stercoralis (ssDAF-12).; type: functional
[4] = biological target: T2, Oxysterols receptor LXR-beta (Homo sapiens, UniProt P55055); assay: LXR agonists, Gal4 luciferase reporter, dose response, counter-screen for ssDAF-12 agonist project, cell-based, luminescence, HEK293, S. stercoralis campaign (AID 720737); type: functional; conditions: read-out: IC50 (the source's name)
T2 sequence (P55055 whole entry): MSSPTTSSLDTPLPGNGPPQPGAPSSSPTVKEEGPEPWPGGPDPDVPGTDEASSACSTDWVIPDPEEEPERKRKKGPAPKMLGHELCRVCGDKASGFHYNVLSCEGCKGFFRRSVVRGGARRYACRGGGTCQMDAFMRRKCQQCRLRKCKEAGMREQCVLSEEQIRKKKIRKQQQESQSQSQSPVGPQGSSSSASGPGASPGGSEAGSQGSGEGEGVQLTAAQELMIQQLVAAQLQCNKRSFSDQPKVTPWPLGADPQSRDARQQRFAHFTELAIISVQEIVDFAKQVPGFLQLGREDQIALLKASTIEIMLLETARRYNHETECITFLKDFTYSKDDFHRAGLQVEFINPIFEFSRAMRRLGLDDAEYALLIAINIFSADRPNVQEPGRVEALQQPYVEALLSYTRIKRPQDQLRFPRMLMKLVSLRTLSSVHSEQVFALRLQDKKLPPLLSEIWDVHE

[5] = cytotoxicity in HPDE-C7 cells, cell-based, fluorescence, HTS (AID 430); type: functional; conditions: Homo sapiens
[6] = cytotoxicity in KRAS-transformed pancreatic duct cells, primary screen, cell-based, fluorescence, HTS (AID 431); type: functional; conditions: Homo sapiens;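 note: cell line used: HPDE-C7K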
[7] = biological target: T3, Small ubiquitin-related modifier 1 (Homo sapiens, UniProt P63165); assay: inhibitors of SUMO1 peptide binding, dose response, biochemical, fluorescence polarization, uHTS hits (AID 624382); type: functional; conditions: read-out: IC50_Mean
T3 sequence (P63165 whole entry): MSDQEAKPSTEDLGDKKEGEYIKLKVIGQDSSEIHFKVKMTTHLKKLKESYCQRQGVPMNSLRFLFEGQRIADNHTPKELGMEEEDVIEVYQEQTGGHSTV

[8] = biological target: T3, Small ubiquitin-related modifier 1; assay: inhibitors of SUMO1 partner interactions, dose response, biochemical, FRET (AID 624383); type: functional; conditions: read-out: IC50_Mean
[9] = biological target: E3 ubiquitin-protein ligase Mdm2 (Homo sapiens, UniProt Q00987); assay: enhancers of MDM2-luciferase reporter signal, concentration-effect titration, project on inhibitors of MDM2 ubiquitin ligase, cellular assay, luminescent readout, 384-well plate format (AID 1394); type: functional;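 note: MDM2 E3 inhibitors raise luminescence so EC50 is for signal enhancement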
Sequence of E3 ubiquitin-protein ligase Mdm2 (Q00987 whole entry): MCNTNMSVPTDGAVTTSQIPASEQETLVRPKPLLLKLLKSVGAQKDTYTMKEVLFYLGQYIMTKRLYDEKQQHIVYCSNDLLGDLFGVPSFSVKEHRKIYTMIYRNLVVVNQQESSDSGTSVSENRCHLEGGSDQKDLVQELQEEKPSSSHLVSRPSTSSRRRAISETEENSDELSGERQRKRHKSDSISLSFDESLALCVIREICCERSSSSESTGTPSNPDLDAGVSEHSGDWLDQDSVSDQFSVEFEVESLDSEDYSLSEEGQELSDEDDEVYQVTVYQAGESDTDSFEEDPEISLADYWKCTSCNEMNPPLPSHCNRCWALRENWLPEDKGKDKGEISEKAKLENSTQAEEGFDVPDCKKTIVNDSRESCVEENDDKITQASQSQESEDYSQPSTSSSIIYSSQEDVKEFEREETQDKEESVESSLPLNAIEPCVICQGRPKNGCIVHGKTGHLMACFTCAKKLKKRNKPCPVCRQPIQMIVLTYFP

cells [10] = type: functional, cell-based
cells [11] = type: functional, cell-based; remark: listed apart in the source
[12] = growth suppression of PTEN-null colon cells, dose response, cell-based, HCT116 PTEN knockout (AID 1047); type: functional;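 note: HCT116 colon tumor cells with PTEN knocked out; cells exposed to compound for 60 hours before readout; potency for loss of cell viability measured by luminescence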
[13] = growth suppression of beta-catenin-knockout colon cells, dose response, cell-based, HCT116, human colon tumor (AID 1045); type: functional;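 note: HCT116 colon tumor cells with beta catenin knocked out; cells exposed to compound for 60 hours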
[14] = biological target: T4, Long-chain-fatty-acid--AMP ligase FadD28 (Mycobacterium tuberculosis, UniProt P9WQ59); assay: Fluorescence polarization aasay to screen for inhibitors that compete for the binding of FadD28 to a bisubstrate Measured in Biochemical System Using Plate Reader - 2147-01_Inhibitor_Dose_CherryPick_Activity.; type: functional, Mycobacterium tuberculosis H37Rv
T4 sequence (P9WQ59 whole entry): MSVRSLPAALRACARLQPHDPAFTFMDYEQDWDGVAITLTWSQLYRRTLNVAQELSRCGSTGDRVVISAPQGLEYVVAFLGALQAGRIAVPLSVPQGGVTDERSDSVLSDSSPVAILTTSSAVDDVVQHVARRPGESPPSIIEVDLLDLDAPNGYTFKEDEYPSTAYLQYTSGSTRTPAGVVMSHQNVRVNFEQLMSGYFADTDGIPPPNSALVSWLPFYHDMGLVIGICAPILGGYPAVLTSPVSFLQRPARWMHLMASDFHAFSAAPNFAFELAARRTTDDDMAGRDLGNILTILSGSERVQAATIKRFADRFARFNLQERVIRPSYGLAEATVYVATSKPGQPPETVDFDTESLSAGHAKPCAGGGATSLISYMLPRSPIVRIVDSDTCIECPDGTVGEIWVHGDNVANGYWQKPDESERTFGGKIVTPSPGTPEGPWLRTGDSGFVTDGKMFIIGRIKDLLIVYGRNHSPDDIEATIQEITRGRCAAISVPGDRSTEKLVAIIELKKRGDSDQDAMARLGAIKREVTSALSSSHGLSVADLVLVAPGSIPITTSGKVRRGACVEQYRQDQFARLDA

[15] = biological target: Delta-type opioid receptor (Homo sapiens, UniProt P41143); assay: Counterscreen for agonists of heterodimerization of the mu 1 (OPRM1) and delta 1 (OPRD1) opioid receptors: Luminescence-based cell-based high throughput dose response assay to identify agonists of OPRD1 homodimerization. [Related pubchem assays (depositor defined):AID504326, AID504355, AID504692, AID504904, AID504905]; type: functional
Sequence of Delta-type opioid receptor (P41143 whole entry): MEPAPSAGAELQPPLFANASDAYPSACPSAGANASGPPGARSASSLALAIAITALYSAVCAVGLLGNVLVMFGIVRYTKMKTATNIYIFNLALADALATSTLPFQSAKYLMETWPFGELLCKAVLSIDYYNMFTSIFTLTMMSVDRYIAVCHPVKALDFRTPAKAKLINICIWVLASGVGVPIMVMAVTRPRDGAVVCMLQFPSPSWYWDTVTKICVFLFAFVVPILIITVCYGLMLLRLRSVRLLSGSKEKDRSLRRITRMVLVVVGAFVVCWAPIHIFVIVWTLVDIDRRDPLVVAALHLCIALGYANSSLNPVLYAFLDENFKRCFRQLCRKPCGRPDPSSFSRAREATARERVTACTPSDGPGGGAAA

Mu-type opioid receptor = Mu-type opioid receptor (Homo sapiens, UniProt P35372); assay: Counterscreen for agonists of heterodimerization of the mu 1 (OPRM1) and delta 1 (OPRD1) opioid receptors: Luminescence-based cell-based high throughput dose response assay to identify agonists of OPRM1 homodimerization.; type: functional;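 note: U2OS cells expressing OPRM1 and beta-arrestin as split beta-galactosidase partners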
[16] = biological target: 5-hydroxytryptamine receptor 5A (Homo sapiens, UniProt P47898); assay: Counterscreen for agonists of OPRM1-OPRD1 heterodimerization: luminescence-based cell-based high throughput dose response assay to identify agonists of 5-hydroxytryptamine (serotonin) 5A receptor (HTR5A). [Related pubchem assays (depositor defined):AID504326, AID504355, AID504692, AID504904, AID504905]; type: functional
[17] = biological target: Photoreceptor-specific nuclear receptor (Homo sapiens, UniProt Q9Y5X4); type: functional, cell-based;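 note: CHO-S cells with Gal4-NCOR and VP16-NR2E3 two-hybrid luciferase reporter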
[18] = biological target: T5, Hepatocyte nuclear factor 4-alpha (Homo sapiens, UniProt P41235); type: functional, cell-based;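 note: biochemical luminescence-based dose-response counterscreen measuring inhibition of HNF4 dimerization, run alongside a screen for blockers of ABHD5–perilipin-5 interaction; split luciferase complementation of HNF4 fusion proteins in cell lysate measuring dimerization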
T5 sequence (P41235 whole entry): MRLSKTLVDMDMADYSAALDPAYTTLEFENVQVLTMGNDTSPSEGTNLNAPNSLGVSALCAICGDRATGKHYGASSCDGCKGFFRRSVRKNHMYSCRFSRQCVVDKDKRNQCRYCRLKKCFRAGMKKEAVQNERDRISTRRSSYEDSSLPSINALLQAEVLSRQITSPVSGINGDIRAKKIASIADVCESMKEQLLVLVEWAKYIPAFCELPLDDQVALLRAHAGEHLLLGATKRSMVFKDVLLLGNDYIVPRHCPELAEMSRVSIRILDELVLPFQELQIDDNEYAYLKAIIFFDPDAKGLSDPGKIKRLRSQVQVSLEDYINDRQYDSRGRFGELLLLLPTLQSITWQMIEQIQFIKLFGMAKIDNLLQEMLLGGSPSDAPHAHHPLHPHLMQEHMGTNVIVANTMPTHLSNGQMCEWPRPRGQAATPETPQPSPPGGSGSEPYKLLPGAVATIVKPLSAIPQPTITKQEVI

Fatty acid synthase [19] = biological target: T6, Fatty acid synthase (Homo sapiens, UniProt P49327); assay: FAS thioesterase domain inhibitors, dose response, biochemical, endpoint fluorescence intensity, uHTS hits (AID 624327); type: functional;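 note: fluorescence from hydrolysis of an O-methyl fluorescein acyl ester substrate by the enzyme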
T6 sequence (P49327 whole entry, the tested form may be a part): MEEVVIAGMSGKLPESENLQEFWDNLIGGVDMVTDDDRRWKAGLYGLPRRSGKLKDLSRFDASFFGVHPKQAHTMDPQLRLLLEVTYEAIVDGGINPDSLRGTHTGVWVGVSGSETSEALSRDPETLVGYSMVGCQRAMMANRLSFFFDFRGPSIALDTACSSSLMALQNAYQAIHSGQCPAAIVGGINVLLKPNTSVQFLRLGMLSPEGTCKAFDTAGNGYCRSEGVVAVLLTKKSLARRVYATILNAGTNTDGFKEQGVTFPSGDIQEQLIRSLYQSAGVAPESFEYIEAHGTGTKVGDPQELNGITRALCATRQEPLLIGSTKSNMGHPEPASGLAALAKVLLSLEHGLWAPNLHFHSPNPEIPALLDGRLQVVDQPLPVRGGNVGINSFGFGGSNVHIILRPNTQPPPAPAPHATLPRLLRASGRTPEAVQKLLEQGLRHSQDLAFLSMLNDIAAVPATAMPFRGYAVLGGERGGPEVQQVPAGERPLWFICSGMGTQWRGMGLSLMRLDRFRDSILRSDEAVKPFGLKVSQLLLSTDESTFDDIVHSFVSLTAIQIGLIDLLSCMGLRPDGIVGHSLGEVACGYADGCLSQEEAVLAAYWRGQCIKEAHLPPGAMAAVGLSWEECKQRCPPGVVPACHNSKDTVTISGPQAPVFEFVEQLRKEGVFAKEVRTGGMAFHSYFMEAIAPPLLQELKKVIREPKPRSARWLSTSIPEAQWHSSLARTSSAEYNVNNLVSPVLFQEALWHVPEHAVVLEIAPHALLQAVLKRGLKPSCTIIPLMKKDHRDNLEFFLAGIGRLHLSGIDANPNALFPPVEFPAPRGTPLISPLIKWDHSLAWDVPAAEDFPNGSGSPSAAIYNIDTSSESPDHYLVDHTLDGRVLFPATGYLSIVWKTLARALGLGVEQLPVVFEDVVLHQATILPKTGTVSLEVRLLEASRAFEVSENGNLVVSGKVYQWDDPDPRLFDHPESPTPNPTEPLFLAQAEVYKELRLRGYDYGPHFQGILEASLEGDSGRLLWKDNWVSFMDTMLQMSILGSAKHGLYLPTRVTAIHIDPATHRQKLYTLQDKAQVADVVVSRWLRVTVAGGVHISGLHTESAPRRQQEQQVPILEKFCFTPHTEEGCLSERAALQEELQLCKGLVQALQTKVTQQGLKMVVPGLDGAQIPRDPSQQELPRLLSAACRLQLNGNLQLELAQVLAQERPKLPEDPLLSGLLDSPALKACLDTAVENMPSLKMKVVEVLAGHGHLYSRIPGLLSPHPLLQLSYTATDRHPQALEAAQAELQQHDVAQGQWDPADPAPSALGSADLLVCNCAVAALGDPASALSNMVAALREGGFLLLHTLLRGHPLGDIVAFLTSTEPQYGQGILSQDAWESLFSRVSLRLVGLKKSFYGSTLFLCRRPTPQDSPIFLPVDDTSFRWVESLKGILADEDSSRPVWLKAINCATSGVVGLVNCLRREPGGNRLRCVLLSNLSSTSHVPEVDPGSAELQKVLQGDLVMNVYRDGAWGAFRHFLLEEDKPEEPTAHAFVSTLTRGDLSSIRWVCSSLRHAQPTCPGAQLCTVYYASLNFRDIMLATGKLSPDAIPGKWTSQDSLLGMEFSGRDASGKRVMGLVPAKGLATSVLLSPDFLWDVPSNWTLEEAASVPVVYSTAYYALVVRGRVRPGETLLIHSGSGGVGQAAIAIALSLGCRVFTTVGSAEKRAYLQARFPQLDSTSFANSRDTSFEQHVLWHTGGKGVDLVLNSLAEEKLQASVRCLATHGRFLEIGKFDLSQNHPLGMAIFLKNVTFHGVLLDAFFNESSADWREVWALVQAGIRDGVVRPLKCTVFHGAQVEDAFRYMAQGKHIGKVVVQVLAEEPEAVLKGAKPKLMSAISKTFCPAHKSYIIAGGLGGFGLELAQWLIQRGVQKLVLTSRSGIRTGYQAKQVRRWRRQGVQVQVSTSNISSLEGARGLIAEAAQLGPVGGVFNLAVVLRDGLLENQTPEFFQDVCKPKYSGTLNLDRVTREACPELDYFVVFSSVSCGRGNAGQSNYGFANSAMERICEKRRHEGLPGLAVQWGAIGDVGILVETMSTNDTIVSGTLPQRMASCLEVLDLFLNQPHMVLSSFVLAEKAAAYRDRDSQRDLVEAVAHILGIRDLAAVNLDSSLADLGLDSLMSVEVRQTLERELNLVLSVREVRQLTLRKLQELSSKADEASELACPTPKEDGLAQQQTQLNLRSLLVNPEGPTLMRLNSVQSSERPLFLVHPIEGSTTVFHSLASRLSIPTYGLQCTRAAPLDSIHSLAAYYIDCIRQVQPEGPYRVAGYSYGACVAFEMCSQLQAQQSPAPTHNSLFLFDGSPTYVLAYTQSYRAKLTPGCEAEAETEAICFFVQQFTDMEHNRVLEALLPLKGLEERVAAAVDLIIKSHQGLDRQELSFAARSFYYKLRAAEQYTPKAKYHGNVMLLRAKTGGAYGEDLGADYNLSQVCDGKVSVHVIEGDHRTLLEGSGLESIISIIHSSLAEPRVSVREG

Fatty acid synthase [20] = biological target: T6, Fatty acid synthase; assay: FAS thioesterase domain inhibitors, dose response, biochemical, kinetic fluorescence intensity (AID 624326); type: functional;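 note: rate of fluorescence rise from hydrolysis of a fluorogenic O-methyl fluorescein ester substrate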
Paired box protein Pax-8 = Paired box protein Pax-8 (Homo sapiens, UniProt Q06710); assay: inhibitors of PAX8-driven TPO luciferase reporter, dose response, RMG-I cells, cherry-pick (AID 687027); type: functional, cell-based;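 note: luciferase reporter driven by Pax8 target thyroperoxidase promoter measured by SteadyGlo luminescence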
Sequence of Paired box protein Pax-8 (Q06710 whole entry): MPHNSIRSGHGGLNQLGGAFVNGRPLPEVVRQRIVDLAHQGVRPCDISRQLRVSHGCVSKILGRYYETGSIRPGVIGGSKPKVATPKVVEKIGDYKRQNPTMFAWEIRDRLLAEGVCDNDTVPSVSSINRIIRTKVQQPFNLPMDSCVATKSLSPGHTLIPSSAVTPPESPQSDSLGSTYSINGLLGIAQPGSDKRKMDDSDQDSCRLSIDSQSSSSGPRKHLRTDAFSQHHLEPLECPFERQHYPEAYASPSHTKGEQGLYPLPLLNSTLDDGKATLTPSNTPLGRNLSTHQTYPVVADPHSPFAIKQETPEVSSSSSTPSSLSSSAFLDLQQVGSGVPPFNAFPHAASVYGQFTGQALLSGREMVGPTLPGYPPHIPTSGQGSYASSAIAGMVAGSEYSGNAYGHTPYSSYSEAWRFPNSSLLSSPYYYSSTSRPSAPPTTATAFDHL

[21] = NIH:OVCAR-3 ovarian cancer cell cytotoxicity, dose response, PAX8 inhibitor project, plate reader, dry powder samples (AID 743044); type: functional, cell-based
[22] = IGROV1 ovarian cancer cell cytotoxicity, dose response, PAX8 inhibitor project, plate reader, dry powder samples (AID 743043); type: functional, cell-based; conditions: IGROV-1
[23] = non-specific cell cytotoxicity, dose response, cytotoxicity control for PAX8 inhibitor project, plate reader, dry powder samples (AID 743021); type: functional, cell-based
[24] = cytotoxicity in OVCAR8 ovarian cancer cells, dose response, PAX8 project, cell-based, plate reader, dry powder samples (AID 743197); type: functional; conditions: OVCAR-8
P388/ADR = assay: cells; type: functional; conditions: Mus musculus
SN12K1 = assay: cells; type: functional; conditions: Homo sapiens, SN12K1
P388 = assay: cells; type: functional; conditions: Mus musculus, P388

Sequence of Voltage-gated inwardly rectifying potassium channel KCNH2 (Q12809 whole entry): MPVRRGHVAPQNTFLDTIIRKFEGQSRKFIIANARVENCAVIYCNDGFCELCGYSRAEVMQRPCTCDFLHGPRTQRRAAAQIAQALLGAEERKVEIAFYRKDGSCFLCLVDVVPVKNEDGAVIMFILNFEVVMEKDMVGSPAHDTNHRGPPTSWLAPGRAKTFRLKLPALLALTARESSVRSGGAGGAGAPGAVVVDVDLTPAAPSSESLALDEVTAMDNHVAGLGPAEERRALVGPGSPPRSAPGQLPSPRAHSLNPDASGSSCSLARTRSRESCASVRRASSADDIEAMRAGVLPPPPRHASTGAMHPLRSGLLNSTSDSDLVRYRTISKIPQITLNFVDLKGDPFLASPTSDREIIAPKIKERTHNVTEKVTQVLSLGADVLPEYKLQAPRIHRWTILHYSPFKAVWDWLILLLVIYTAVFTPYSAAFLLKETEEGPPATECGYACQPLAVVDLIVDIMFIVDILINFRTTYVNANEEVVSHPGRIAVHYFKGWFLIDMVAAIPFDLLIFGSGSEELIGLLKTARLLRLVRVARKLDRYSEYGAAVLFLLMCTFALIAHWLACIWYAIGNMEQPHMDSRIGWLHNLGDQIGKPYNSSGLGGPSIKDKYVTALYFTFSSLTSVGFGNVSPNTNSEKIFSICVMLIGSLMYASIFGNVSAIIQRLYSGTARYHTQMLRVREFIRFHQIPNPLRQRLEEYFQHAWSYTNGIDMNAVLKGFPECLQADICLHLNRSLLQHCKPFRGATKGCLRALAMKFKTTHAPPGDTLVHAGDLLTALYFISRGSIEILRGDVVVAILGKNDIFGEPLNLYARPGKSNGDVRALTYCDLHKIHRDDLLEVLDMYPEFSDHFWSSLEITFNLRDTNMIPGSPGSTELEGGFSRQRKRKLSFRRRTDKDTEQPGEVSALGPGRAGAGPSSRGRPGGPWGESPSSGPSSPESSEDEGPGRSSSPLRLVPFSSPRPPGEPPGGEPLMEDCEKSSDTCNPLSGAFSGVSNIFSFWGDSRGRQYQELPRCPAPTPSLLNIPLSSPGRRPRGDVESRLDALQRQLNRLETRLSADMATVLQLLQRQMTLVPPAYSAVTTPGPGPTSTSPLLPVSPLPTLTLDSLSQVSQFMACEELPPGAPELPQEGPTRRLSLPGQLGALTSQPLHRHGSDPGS

## CCOC(=O)Cc1csc(NC(=S)NC(=O)c2ccc(Cl)cc2)n1
[1]
  EC50: 0.55 µM (active)
[2]
  IC50: > 80 µM (inactive)

## COc1ccc(-c2cn3cccnc3n2)cc1NC(=O)CC(C)C
fMet-Leu-Phe receptor
  Ki: > 66.7 µM (inactive)

## CC(c1nccs1)N(C)C(=O)CCc1nnc(Cc2c[nH]c3ccccc23)o1 (stereo not drawn)
[3]
  IC50: > 67.5 µM (inactive)
[4]
  EC50: > 67.5 µM (inactive)

## OCCN1CCN(c2nc(-c3ccccc3)nc3c2oc2ccccc23)CC1
[5]
  EC50: 7.2 µM (active)
[6]
  EC50: 10.2 µM (active)

## C=CCn1c(NC(=O)c2ccccc2)c(C#N)c2nc3ccccc3nc21
fMet-Leu-Phe receptor
  Ki: > 66.7 µM (inactive)

## O=C(Nc1cccnc1Cl)c1cc(-c2cccc(O)c2)on1
[7]
  IC50: > 66.6 µM (inactive)
[8]
  IC50: 8.84 µM (active)

## CCCN(CCC)C(S)=Nc1cc(C(=O)OC)ccc1C(=O)OC
[9]
  EC50: 343 µM (not active)
Cells [10]
  EC50: > 350 µM (not active)
Cells [11]
  EC50: > 350 µM (not active)

## CC1=CC(C)(C)Nc2ccc(OC(=O)c3ccco3)cc21
[5]
  EC50: 7.05 µM (active)
[6]
  EC50: 6.79 µM (active)
[12]
  EC50: 7.39 µM (active)
[13]
  EC50: 5.59 µM (active)
[2]
  IC50: 44.7 µM (inactive)

## CC(=O)N1CCN(Cc2nc3cc(NC(=O)NC4CCCCC4)ccc3n2C)CC1
[14]
  AC50: 81 µM (active)

## Cc1ccc(CNC(=O)C(Cc2ccccc2)NS(=O)(=O)c2cccs2)cc1 (stereo not drawn)
[14]
  AC50: 58 µM (active)

## CCCOc1ccc(C2C(C(=O)c3ccco3)=C(O)C(=O)N2CCCn2ccnc2)cc1 (stereo not drawn)
fMet-Leu-Phe receptor
  Ki: > 66.7 µM (inactive)

## COc1ccc(-c2cc(C(F)(F)F)nc(SCC(=O)NCc3cnn(C)c3C)n2)cc1OC
[9]
  EC50: 16.3 µM (not active)

## COC(=O)c1sc2nc(-c3ccccc3)nc(N3CCN(C)CC3)c2c1C
[5]
  EC50: > 20 µM (not active)
[6]
  EC50: > 20 µM (not active)

## CSC(=Nc1ccccc1)N=C(SCc1ccccc1)N(C)C
[15]
  EC50: > 92.4 µM (inactive)
Mu-type opioid receptor
  EC50: > 92.4 µM (inactive)
[16]
  EC50: > 92.4 µM (inactive)
[17]
  IC50: 2.61 µM (active)
[18]
  IC50: 3.95 µM (active)
Fatty acid synthase [19]
  IC50: 1.37 µM (active)
Fatty acid synthase [20]
  IC50: 1.04 µM (active)
Paired box protein Pax-8
  AC50: 4.55 µM (active)

## CCOC(=O)c1ccc(NC(=O)c2c(N)n(Cc3ccccc3)c(=O)[nH]c2=O)cc1
[7]
  IC50: > 66.6 µM (inactive)
[8]
  IC50: 1.43 µM (active)

## C[C@@H]1CCCCO[C@H](CN(C)C(=O)Nc2cccc3ccccc23)[C@H](C)CN([C@@H](C)CO)C(=O)c2cc(NS(=O)(=O)c3ccc(Cl)cc3)ccc2O1
Paired box protein Pax-8
  AC50: 5.39 µM (active)
[21]
  AC50: 16.8 µM (active)
[22]
  AC50: 51.8 µM (active)
[23]
  AC50: 55.2 µM (active)
[24]
  AC50: 59.6 µM (active)

## CCCCCCCC/C=C\CCCCCCCC(=O)O [OLEIC ACID]
[1]
  EC50: 10.4 µM (active)
P388/ADR
  GI50: 78.9 µM (inactive)
SN12K1
  GI50: 101 µM (inactive)
P388
  GI50: 115 µM (inactive)

Reference: ChEMBL document CHEMBL1201862, “PubChem BioAssay data set” (2004)
